Laboratory results: PubChem BioAssay AID1996
In brackets after ≈: the same amount, converted by molar mass.

Conditions: buffer; pH 7.4; 200.0 µM

solubility kinetic [µg/mL] | Compound
43.5 (≈ 144 µM) | COC(=O)CCC(=O)Nc1ccc2oc3c(c2c1)CCCC3
42.9 (≈ 134 µM) | O=C(Cc1cccs1)N1CCN(c2cccc(Cl)c2)CC1
< 0.7 | COc1ccccc1/C=C/c1nc2ccc(OC(C)=O)cc2c(=O)o1
> 43.6 | Cl.c1ccc2c(N3CCOCC3)c3c(nc2c1)CCC3
0.6 (≈ 1.66 µM) | CC(=O)Nc1ccc(NC(=O)c2ccc(COc3ccccc3)cc2)cc1
> 39.2 | Cc1cc(=O)oc(C)c1C(=O)Nc1ccc(F)cc1
3.1 (≈ 9.03 µM) | COC(=O)c1ccc(NC(=O)c2ccc(OC(C)=O)c(OC)c2)cc1
9.6 (≈ 28.2 µM) | COc1ccc(NC(=O)CN2C(=O)C(C)Oc3ccc(C)cc32)cc1 (stereo not drawn)
0.6 (≈ 1.88 µM) | Cc1cccc(NC(=S)NCCc2ccc(Cl)cc2)c1C
> 46.1 | CCOC(=O)c1c(C)[nH]c(C(=O)N2CCN(CC)CC2)c1C
> 50.8 | COc1ccc(C(=O)NC(Cc2c[nH]c3ccccc23)C(=O)O)cc1 (stereo not drawn)
3.3 (≈ 11.4 µM) | Cc1ccc(C(C)C)cc1S(=O)(=O)Nc1ccncc1
> 44.1 | OCc1cccc[n+]1CCc1ccccc1.[Br-]
34 (≈ 108 µM) | Cc1ccc(OCc2cc(C(=O)NC3CCCCC3)no2)cn1
52.7 (≈ 145 µM) | CN(c1ccc(C(=O)N2CCCCC2)cc1)S(=O)(=O)c1cccs1
> 40.8 | O=C(Nc1ccccc1F)c1ccc2ncsc2c1
22.6 (≈ 87.8 µM) | O=C(CSc1ccccc1)NCc1ccccc1
> 66.6 | CC(=O)N1CCN(C(=O)c2ccc(Cl)c(S(=O)(=O)N3CC(C)OC(C)C3)c2)CC1 (stereo not drawn)
7.8 (≈ 23.5 µM) | CC(=O)c1cc(F)ccc1OCC(=O)Nc1ccc2c(c1)OCO2
> 50.3 | OCC1(Cc2ccccc2)CCN(Cc2cc3ccccc3o2)CC1
34.6 (≈ 134 µM) | O=C(Nc1cc(Cl)cc(Cl)c1)N1CCCC1
< 0.4 | COc1cccc(OCCNC(=O)Nc2cc(F)c(F)cc2Cl)c1
44.7 (≈ 147 µM) | CNC(=O)c1ccccc1NC(=O)C1CC(=O)N(C(C)C)C1 (stereo not drawn)

solubility kinetic [µg/mL] | Compound
> 50.2 | CCCNC(=O)c1ccc(C)c(NC(=O)C2=C(C)OCCS2)c1
> 50.8 | COCCCn1c(=O)c2ccccc2n(Cc2ccccc2C)c1=O
> 43.5 | Cl.O=S(=O)(CCC1CCCCN1)c1ccccc1 (stereo not drawn)
61.5 (≈ 126 µM) | CC(=O)c1cccc(OCC(=O)OCC(=O)Nc2cc(S(=O)(=O)N3CCCCC3)ccc2C)c1
> 50.6 | N#Cc1ccc(C(=O)CSc2n[nH]c(=O)n2-c2cccnc2)cc1
< 0.2 | c1ccc(Nc2nc(-c3ccccc3)ns2)cc1
2.8 (≈ 8.3 µM) | Cn1c(C(=O)N2CCN(c3ccc(F)cc3)CC2)cc2ccccc21
> 32.3 | O=C(O)c1cccc2c3c([nH]c12)CCCC3
34 (≈ 127 µM) | O=S(=O)(NCCc1ccccc1)c1cccs1
> 41.6 | Cc1cccc(C(=O)OCC(=O)N2CCCC2=O)c1O
> 51.1 | Cn1c(C(=O)N[C@@H](Cc2ccccc2)C(=O)O)cc2cc(F)ccc21
46.4 (≈ 146 µM) | Cc1cc(C)c2sc(NC(=O)CN3C(=O)CCC3=O)nc2c1
> 49.9 | C=CCNC(=O)COC(=O)c1ccc(Cl)c(S(N)(=O)=O)c1
1.4 (≈ 4.66 µM) | COc1ccc(-n2c(=S)[nH]c3ccccc3c2=S)cc1
10.5 (≈ 34.5 µM) | O=C1NC2(CCCCCCC2)C(=O)N1Cc1ccc(F)cc1
1.6 | Cl.OC(CNCc1ccc(-c2ccccc2)cc1)c1ccccc1 (stereo not drawn)
12.1 (≈ 43.5 µM) | COc1ccc(C(=O)Nc2ccc3ncccc3c2)cc1
37.8 (≈ 119 µM) | Cc1occc1C(=O)NCc1nc(-c2ccc(Cl)cc2)no1
5.5 (≈ 15.8 µM) | C=C(C)COc1ccc(-c2ncncc2-c2ccccc2OC)c(O)c1
< 0.2 | Oc1ccccc1Nc1nc(-c2ccccc2O)nc2ccccc12
> 35.9 | Cc1ccccc1Nc1ncnc2c1cnn2C
> 46.4 | O=C(CC(c1ccccc1)c1ccccc1O)N1CCCCC1 (stereo not drawn)
49.4 | CN(C)CC(C)(C)CNS(=O)(=O)c1ccc(Cl)cc1.Cl

solubility kinetic [µg/mL] | Compound
43.7 (≈ 146 µM) | COc1ccc(CN(C(C)=O)c2ccccc2C(=O)O)cc1
> 55 | CC(NC(=O)COC(=O)CN1C(=O)c2ccccc2C1=O)c1ccccc1 (stereo not drawn)
> 53.6 | COC(=O)c1ccc(OCC2NCCc3cc(OC)c(OC)cc32)cc1 (stereo not drawn)
35 (≈ 148 µM) | O=c1o[nH]c(-c2ccccc2)c1-c1ccccc1
25.3 (≈ 77.3 µM) | COc1ccc2cc(C(C)C(=O)NC3CCC(O)CC3)ccc2c1 (stereo not drawn)
> 38.4 | Cc1ccc2c(c1)CCCN2C(=O)c1cc(C)on1
> 42.7 | O=C(NC(=S)N1CCOCC1)c1ccccc1Cl
> 42.7 | CC(OC(=O)c1ccc(Cl)nc1)C(=O)NC(C)(C)C (stereo not drawn)
> 45.2 | COc1cccc(C(=O)O/N=C(\N)c2ccccn2)c1OC
19.5 (≈ 80.1 µM) | Cc1ccccc1NC(=O)/C=C/c1cccs1
2.8 (≈ 7.19 µM) | Cc1cccc(C(=O)OCC(=O)c2csc(N3CCCCC3)n2)c1[N+](=O)[O-]
6.2 (≈ 18.2 µM) | CCOCCOc1cccc(C(=O)NC(c2ccccc2)C(C)C)c1 (stereo not drawn)
43.2 (≈ 145 µM) | Cn1cccc1C1C(C#N)=C(N)OC2=C1C(=O)CC(C)(C)C2 (stereo not drawn)
37.3 (≈ 94.8 µM) | COc1ccc(CCn2c(C)cc(C(=O)COC(=O)c3cnccn3)c2C)cc1
41.9 (≈ 145 µM) | O=C(COC(=O)C1CC1)Nc1ccc(Cl)cc1Cl
33.4 (≈ 137 µM) | CN1C(=O)c2ccc(NC(=O)C3CC3)cc2C1=O
> 37.5 | COc1nc(Nc2ccccc2F)nc(OC)n1
> 53.2 | Cc1cn2c(=O)c(C(=O)N3CCN(c4ccccc4)CC3)cnc2s1
49.4 (≈ 139 µM) | COc1ccc(C(CCNCc2ccc(OC(C)C)cc2)C(C)C)cc1 (stereo not drawn)
15.6 (≈ 42.6 µM) | O=C(Nc1cccc(S(=O)(=O)N2CCCC2)c1)c1ccc(Cl)nc1
> 39 | O=C(NCCc1ccccc1)c1ccccc1Cl
> 44.8 | CC(C)(C)S(=O)(=O)c1cnc(N2CCCCC2)nc1N
33.2 (≈ 128 µM) | CCC1CCCCN1C(=O)CCCc1ccccc1 (stereo not drawn)

solubility kinetic [µg/mL] | Compound
> 38.1 | COc1ccc(Nc2nccc3c2ncn3C)cc1
< 0.3 | CCCc1cc(C(=O)Nc2ccc(OC)cc2[N+](=O)[O-])cs1
41.8 (≈ 108 µM) | CN(Cc1ccc2c(c1)OCCO2)C(=O)CSc1ncnc2sccc12
37.2 (≈ 125 µM) | O=C(COc1cccnc1[N+](=O)[O-])c1ccc(Cl)s1
0.8 (≈ 2.96 µM) | Cc1ccccc1Nc1ccc2nonc2c1[N+](=O)[O-]
47.8 (≈ 146 µM) | O=S(=O)(Nc1ccc2c(c1)OCCO2)c1c(F)cccc1F
40.6 (≈ 112 µM) | O=C(NC1CCCC1)C(c1cc2c(cc1[N+](=O)[O-])OCO2)N1CCCC1 (stereo not drawn)
> 28.4 | S=P(N1CC1)(N1CC1)N1CC1
37.3 (≈ 108 µM) | CC1=C(C(=O)OCC2CCCCC2)C(c2cccc(O)c2)NC(=O)N1 (stereo not drawn)
11.9 (≈ 58.3 µM) | C/C(=N\O)c1ccc(Cl)c(Cl)c1
35.5 (≈ 144 µM) | O=C(NCc1ccccc1)c1ccc(F)c(F)c1
17.7 (≈ 36.3 µM) | O=C(NCC(c1ccco1)N1CCCCC1)c1ccc(S(=O)(=O)Nc2ccccc2Cl)cc1 (stereo not drawn)
31.7 (≈ 130 µM) | Cc1nc(-c2ccc3c(c2)CCC(=O)N3)cs1
> 64.4 | NS(=O)(=O)c1cccc(NC(=O)CSc2nnc(C3CC3)n2-c2ccccc2)c1
25.4 (≈ 62.8 µM) | CN(Cc1cccc(F)c1)C(=O)c1ccc(S(=O)(=O)N2CCCCCC2)cc1
38.4 (≈ 147 µM) | CN(C(=O)c1ccc2c(c1)OCO2)C1CCCCC1
> 47.6 | CCCCCOc1ccc(C(=O)CCC(=O)N2CCCC2)cc1
16.1 (≈ 55.3 µM) | Cc1nc(N)nc(SCc2ccc([N+](=O)[O-])cc2)c1N
0.9 (≈ 2.53 µM) | COc1cc(=O)[nH]c(SC(C)C(=O)Nc2cccc3ccccc23)n1 (stereo not drawn)
< 0.2 | CCCn1c(=O)c(C(=O)Nc2cc(C)ccn2)c(O)c2ccccc21
8.7 (≈ 31.3 µM) | CC(=O)Nc1ccc(/C=C/c2nc3ccccc3o2)cc1
12.8 (≈ 41.5 µM) | Nc1nc(Nc2cccc(F)c2)nc(NCCO)c1[N+](=O)[O-]
22.2 (≈ 57.9 µM) | CC1CCCCC1NC(=O)COC(=O)c1ccc2c(=O)n3c(nc2c1)CCC3 (stereo not drawn)

solubility kinetic [µg/mL] | Compound
> 50.3 | COc1ccc(S(=O)(=O)NC(Cc2ccccc2)C(=O)O)cc1 (stereo not drawn)
> 55 | COc1ccc(/C=C/C(=O)Nc2c(C(=O)O)[nH]c3ccccc23)cc1OC
> 42.2 | O=C(O)c1ccccc1Nc1cccc(C(F)(F)F)c1
9.7 (≈ 31.8 µM) | Oc1ccc(NCc2ccc(OCc3ccccc3)cc2)cc1
> 36.3 | C(=N\Nc1nc2ccccc2[nH]1)/C1CCCCC1
> 48.1 | N#Cc1cccc(S(=O)(=O)NCCOc2ccccc2F)c1
3.8 (≈ 15.4 µM) | Cc1ccc2c(c1)-c1[nH]c(=S)ncc1CS2
> 43.1 | CC(C(=O)Nc1cc(Cl)cc(Cl)c1)N1CCCC1 (stereo not drawn)
11.5 (≈ 42.7 µM) | O=C(c1cccs1)N1CC=C(c2ccccc2)CC1
50.1 (≈ 137 µM) | O=C(Nc1ccc(CN2CCOCC2)cc1)c1cc(Cl)ccc1Cl
8.9 (≈ 31.1 µM) | CCn1c(=O)c2sccc2n(Cc2ccccc2)c1=O
9.2 (≈ 26.5 µM) | CCc1ccc(OCC(=O)OCC(=O)NC2CCCC(C)C2C)cc1 (stereo not drawn)
> 45.3 | Cc1nn(C)c(C)c1CNC(=O)Nc1ccc2c(c1)OCO2
39.8 (≈ 121 µM) | COc1ccccc1OCc1ccc(C(=O)NC2CCCCC2)o1
6.6 (≈ 32.8 µM) | CCOc1nc2ccccc2cc1C=O
> 41 | O=[N+]([O-])c1cccc(C2(O)COc3ccccc3O2)c1 (stereo not drawn)
> 42.5 | Cc1ccc(C(=O)Nc2ccc3c(c2)OCCO3)c(C)c1
> 45.5 | CN(C)C(=O)c1cnc(-c2ccccc2)nc1-c1ccccc1
39.7 (≈ 121 µM) | COc1ccc(-c2noc(CCC(=O)NCc3ccco3)n2)cc1
> 41.6 | CC(C)n1c(N2CCCC2)nc2c1c(=O)[nH]c(=O)n2C
> 47.6 | CC(=O)c1ccccc1NC(=O)CC1(CC(=O)O)CCCCC1
2.7 (≈ 6.99 µM) | COc1ccc(C(=O)OCC(=O)c2ccc3c(c2)NC(=O)CO3)cc1[N+](=O)[O-]
> 53.6 | CC(NC(=O)COC(=O)C12CC3CC(CC(O)(C3)C1)C2)c1ccccc1 (stereo not drawn)

Compound | solubility kinetic [µg/mL]
O=C(Nc1cccc(OC(=O)N2CCCCC2)c1)N1CCOCC1 | > 50
Cc1cccc(CCNCc2cc3cccc(C)c3[nH]c2=O)c1 | 45.9 (≈ 150 µM)
Cc1ccc(NS(=O)(=O)c2cc(C(=O)N(C)C3CCN(C)CC3)ccc2Cl)cc1Cl.O=C(O)C(=O)O | > 84.1
